On the data set, the source says:
For a given oil phase which is often designed to meet specific market, customer, or application needs, actives or other components in aqueous phase can form and grow large crystals in oil phase due to high solubilities and Oswald Ripening, and result in emulsion destabilization.

This is an account of results in patent US20160192641A1, “STABLE EMULSION FORMULATION HINDERING INTERACTION ACROSS THE WATER-OIL INTERFACE” (Dow AgroSciences LLC, priority 2007, published 2016).

`O=C(Nc1ccc(F)cc1F)c1cccnc1Oc1cccc(C(F)(F)F)c1` [diflufenican]: the “solubility in methyl soyate” value is over 1 % by wt.

`COc1cnc(OC)n2nc(NS(=O)(=O)c3c(OCC(F)F)cccc3C(F)(F)F)nc12` [penoxsulam] registered a solubilities in acetochlor of over 1000 ppm.
